Read-outs that look alike come from different tables or passages of the source.
How the values were obtained:
[1] = test system: NIH3T3 fibroblasts; assay: Peroxidation of membrane lipids, MDA by TBA method; format: cell-based, mouse; conditions: FW = fresh weight
Method: A typical symptom associated with aging is the direct consequence of increased concentrations of reactive oxygen species and lipid peroxidation. […] MDA levels were measured using thiobarbituric acid (TBA method). […] The crude extract was centrifuged at 10,000×g for 5 minutes and 100 μl aliquots of the supernatant were mixed with 100 μl of 0.5% (w/v) TBA containing 0.1% (w/v) trichloroacetic acid. The resulting solution was then incubated for 30 min at 95° C. The samples were rapidly cooled on ice and centrifuged for 5 minutes at 1000×g. […] The newly prepared derivatives of the general formula thus have a protective function against the negative effects of reactive oxygen species that accumulate strongly in the tissues.

[2] = test system: BJ (human foreskin fibroblasts); assay: Calcein AM cytotoxicity, BJ; conditions: read-out: Cytotoxicity IC50, BJ; 72 hours incubation, Calcein AM; highest concentration […]
Description: (§1) One of the parameters used, as the basis for cytotoxicity assays, is the metabolic activity of viable cells. For example, a microtiter assay, which uses the Calcein AM, is now widely used to quantitate cell proliferation and cytotoxicity. […] Because only metabolically active cells cleave Calcein AM, these assays detect viable cells exclusively. The quantity of reduced Calcein AM corresponds to the number of vital cells in the culture.
(§2) Mouse fibroblasts NIH3T3; mouse immortalized bone marrow macrophages B2.4 and B10A.4, and BJ (human foreskin fibroblasts) were used for routine screening of compounds. The cells were maintained in Nunc/Corning 80 cm^2 plastic tissue culture flasks and cultured in cell culture medium (DMEM with 5 g/l glucose, 2 mM glutamine, 100 U/ml penicillin, 100 μg/ml streptomycin, 10% fetal calf serum and sodium bicarbonate).
(§3) The cell suspensions that were prepared and diluted according to the particular cell type and the expected target cell density (2.500-30.000 cells per well based on cell growth characteristics) were added by pipette (80 μl) into 96/well microtiter plates. Inoculates were allowed a pre-incubation period of 24 hours at 37° C. and 5% CO2 for stabilisation. Four-fold dilutions of the intended test concentration were added at time zero in 20 μl aliquots to the microtiter plate wells. Usually, the compound tested was evaluated at six 4-fold dilutions. […] All compound concentrations were examined in duplicates. Incubations of cells with the tested compounds lasted for 72 hours at 37° C., in 5% CO2 atmosphere and 100% humidity. At the end of the incubation period, the cells were assayed by using Calcein AM. Ten microliters of the stock solution were pipetted into each well and incubated for 1 hour. Fluorescence (FD) was measured with the Labsystem FIA Reader Fluoroscan Ascent (UK).

[3] = test system: NIH-3T3; assay: Calcein AM cytotoxicity, NIH-3T3; conditions: read-out: Cytotoxicity IC50, NIH-3T3; 72 hours incubation, Calcein AM; highest concentration […]
[4] = test system: B10A.4; assay: Calcein AM cytotoxicity, B10A.4 (first column); conditions: read-out: Cytotoxicity IC50, B10A.4; 72 hours incubation, Calcein AM; highest concentration […]
Description: as §1, §2, §3

[5] = Radical scavenging activity determined by ORAC; conditions: relative to trolox; Mean ± SD (n = 3)
Method: The ability of compounds to scavenge free radicals in vitro was determined by Oxygen Radical Absorbance Capacity (ORAC) method. In brief, fluorescein (100 μl, […]) and 25 μl of compound solution were added into each working well in a 96-well microplate preincubated at 37° C. Thereafter, 25 μL of 250 mM AAPH was quickly added, microplate was shaken for 5 s and the fluorescence (Ex. 485 nm, Em. 510 nm) was read every 3 min over 90 min by using microplate reader Infinite 200 (TECAN, Switzerland). The net area under the curve was used to express antioxidant activity relative to trolox which was used as a standard.

[6] = Calcein AM cytotoxicity, BJ; conditions: human, BJ foreskin fibroblasts
Description: as §1, §2, §3

[7] = Calcein AM cytotoxicity, NIH-3T3; conditions: mouse, NIH-3T3 fibroblasts
[8] = Calcein AM cytotoxicity, B10A.4 (first column); conditions: mouse, B10A.4 immortalized bone marrow macrophages
Description: as §1, §2, §3

[9] = test system: B10A.4
Description: as §1, §2, §3

[10] = test system: BJ (human foreskin fibroblasts)
Description: as §1, §2, §3

[11] = test system: NIH-3T3

SMILES	MDA [1]	IC50 [9]	IC50 [10]	IC50 [11]	other results
CN(C)c1nc(NCc2ccco2)c2ncn(C3CCO3)c2n1 (stereo not drawn) [Compound 3]	12.4 nmol/g FW	–	–	–	IC50 [2]: > 167 µM; IC50 [3]: > 167 µM; IC50 [4]: > 167 µM
CCN(CC)c1nc(NCc2ccccc2)c2ncn(C3CCO3)c2n1 (stereo not drawn) [Compound 9]	12.2 nmol/g FW	–	–	–	IC50 [2]: > 167 µM; IC50 [3]: > 167 µM; IC50 [4]: > 167 µM
CN(C)c1nc(NCc2ccco2)c2ncn(C3CCCO3)c2n1 (stereo not drawn) [Compound 30, 2-(Dimethylamino)-6-furfurylamino-9-(tetrahydrofuran-2-yl)-9H-purine]	12.6 nmol/g FW	–	–	–	ORAC (compound/trolox) [5]: 0.292 ± 0.006; IC50 at 72 h [6]: > 167 µM; IC50 at 72 h [7]: > 167 µM; IC50 at 72 h [8]: > 167 µM
CNc1nc(NCc2cc(C)co2)c2ncn(C3CCCO3)c2n1 (stereo not drawn) [Compound 39]	11.4 nmol/g FW	> 167 µM	> 167 µM	> 167 µM	–
CCN(CC)c1nc(NCc2ccc(C)o2)c2ncn(C3CCCO3)c2n1 (stereo not drawn) [Compound 47]	12.5 nmol/g FW	> 167 µM	> 167 µM	> 167 µM	–
COc1coc(CNc2nc(NCCN(C)C)nc3c2ncn3C2CCCO2)c1 (stereo not drawn) [Compound 58]	11.4 nmol/g FW	> 167 µM	> 167 µM	> 167 µM	–
CNc1nc(NCc2ccc(OC)o2)c2ncn(C3CCCO3)c2n1 (stereo not drawn) [Compound 59]	11.5 nmol/g FW	> 167 µM	> 167 µM	> 167 µM	–
CCNc1nc(NCc2ccc(OC)o2)c2ncn(C3CCCO3)c2n1 (stereo not drawn) [Compound 60]	12.2 nmol/g FW	> 167 µM	> 167 µM	> 167 µM	–
CNc1nc(NCc2ccccc2)c2ncn(C3CCCO3)c2n1 (stereo not drawn) [Compound 64, 2-(Methylamino)-6-benzylamino-9-(tetrahydrofuran-2-yl)-9H-purine]	–	–	–	–	ORAC (compound/trolox) [5]: 0.24 ± 0.001
CN(C)c1nc(NCc2cccc(O)c2)c2ncn(C3CCCO3)c2n1 (stereo not drawn) [Compound 71, 2-(Dimethylamino)-6-(3-hydroxybenzylamino)-9-(tetrahydrofuran-2-yl)-9H-purine]	–	–	–	–	ORAC (compound/trolox) [5]: 5.212 ± 0.238
CCNc1nc(NCc2ccc(O)cc2)c2ncn(C3CCCO3)c2n1 (stereo not drawn) [Compound 75]	11.7 nmol/g FW	> 167 µM	> 167 µM	> 167 µM	–
CN(C)c1nc(NCc2ccc(O)cc2)c2ncn(C3CCCO3)c2n1 (stereo not drawn) [Compound 76, 2-(Dimethylamino)-6-[(4-hydroxybenzyl)amino]-9-(tetrahydrofuran-2-yl)-9H-purine]	–	–	–	–	ORAC (compound/trolox) [5]: 0.192 ± 0.005
CCN(CC)c1nc(NCc2cccc(OC)c2)c2ncn(C3CCCO3)c2n1 (stereo not drawn) [Compound 82]	10.9 nmol/g FW	> 167 µM	> 167 µM	> 167 µM	–
CNc1nc(NCc2ccc(OC)cc2)c2ncn(C3CCCO3)c2n1 (stereo not drawn) [Compound 84, 2-(Methylamino)-6-[(4-methoxybenzyl)amino]-9-(tetrahydrofuran-2-yl)-9H-purine]	10.6 nmol/g FW	–	–	–	IC50 at 72 h [6]: > 167 µM; IC50 at 72 h [7]: > 167 µM; IC50 at 72 h [8]: > 167 µM
CCNc1nc(NCc2ccc(OC)cc2)c2ncn(C3CCCO3)c2n1 (stereo not drawn) [Compound 85]	11.1 nmol/g FW	> 167 µM	> 167 µM	> 167 µM	–
CCN(CC)c1nc(NCc2ccc(OC)cc2)c2ncn(C3CCCO3)c2n1 (stereo not drawn) [Compound 87]	10.4 nmol/g FW	> 167 µM	> 167 µM	> 167 µM	–
COc1cc(CNc2nc(N(C)C)nc3c2ncn3C2CCCO2)ccc1O (stereo not drawn) [Compound 89, 2-(Dimethylamino)-6-[(4-hydroxy-3-methoxybenzyl)amino]-9-(tetrahydrofuran-2-yl)-9H-purine]	–	–	–	–	ORAC (compound/trolox) [5]: 4.359 ± 0.183

Source: patent publication US11643413B2, “9-(2-oxacycloalkyl)-9H-purine-2,6-diamine derivatives and their use for the treatment of skin disorders” (UNIVERZITA PALACKEHO V OLOMOUCI, priority 2017, dated 2023)
